The values below come from paper PMC6315349 (2018).

Holding throughout (experiment): fluorescence turn-on
Assay [1] deals with NOR gate + NOR_input A + NOR_input B (1-1) (DNA:RNA, aptamer) GGUUUGCAAACAUGCUUUGGAUGGUAACGAAUGACCAGCCCGAAAGGGCUGGUCCGACAUCCUUUGGGAAAUCCUUU/CCATCCAAAGCATGTTTGCAAA/AAAGGATTTCCCAAAGGATGTCGGACC
The note with it: 100 mM NaCl, 10 mM MgCl2; 50 mM Tris pH 8.0, 22 °C; 1 μM RNA, 2 μM dye, 2 μM each input; output OFF.

Assay [2] concerns NAND gate + NAND_input A (1-0) (DNA:RNA, aptamer) GGUUUGCAAACAUGCUUUGGAUGGUAACGAAUGACCAGCCCGAAAGGGCUGGUCCGACAUCCUUUGGGAAAUCCUUU/CTATAGCATGTTTGC
The note with it: 100 mM NaCl, 10 mM MgCl2; 50 mM Tris pH 8.0, 22 °C; 2 μM dye; fluorescence lower than without input.

Assay [3] concerns RNA AND/OR gate (no inputs, 0-0) (RNA, aptamer) GGUUUCAACCUUUGCAAACAUGCUUUGGAUGGUAACGAAUGACCAGCCCGAAAGGGCUGGUCCGACAUCCUUUGGGAAAUCCUUUGGGUGCCGUUU
The conditions noted are these: 100 mM NaCl, 10 mM MgCl2; 50 mM Tris pH 8.0, 22 °C; 1 μM RNA, 2 μM dye; output OFF (<60% normalized).

Assay [4] has as its system NAND gate + NAND_input A + NAND input B (1-1) (DNA:RNA, aptamer) GGUUUGCAAACAUGCUUUGGAUGGUAACGAAUGACCAGCCCGAAAGGGCUGGUCCGACAUCCUUUGGGAAAUCCUUU/CTATAGCATGTTTGC/TTGATTTCCCTTTGGT
The note with it: 100 mM NaCl, 10 mM MgCl2; 50 mM Tris pH 8.0, 22 °C; 2 μM dye; output OFF (<60% normalized).

In assay [5] the test system is AND gate + AND_input B (0-1) (DNA:RNA, aptamer) GGUUUCAACCUUUGCAAACAUGCUUUGGAUGGUAACGAAUGACCAGCCCGAAAGGGCUGGUCCGACAUCCUUUGGGAAAUCCUUUGGGUGCCGUUU/AAACAGCGTCCAGAGGAT
The note with it: 100 mM NaCl, 10 mM MgCl2; 50 mM Tris pH 8.0, 22 °C; 2 μM dye, 2 μM input; output OFF (<60% normalized).

For assay [6], the system named is NOR gate + NOR_input A (1-0) (DNA:RNA, aptamer) GGUUUGCAAACAUGCUUUGGAUGGUAACGAAUGACCAGCCCGAAAGGGCUGGUCCGACAUCCUUUGGGAAAUCCUUU/CCATCCAAAGCATGTTTGCAAA
The note with it: 100 mM NaCl, 10 mM MgCl2; 50 mM Tris pH 8.0, 22 °C; 1 μM RNA, 2 μM dye, 2 μM each input; output OFF.

For assay [7], the system named is AND gate + AND_input A (1-0) (DNA:RNA, aptamer) GGUUUCAACCUUUGCAAACAUGCUUUGGAUGGUAACGAAUGACCAGCCCGAAAGGGCUGGUCCGACAUCCUUUGGGAAAUCCUUUGGGUGCCGUUU/GTAAGCTTTGGTTGA …. The note with it: 100 mM NaCl, 10 mM MgCl2; 50 mM Tris pH 8.0, 22 °C; 2 μM dye, 2 μM input; output OFF (<60% normalized).
Assay [8] deals with OR gate + OR_input A + OR_input B (1-1) (DNA:RNA, aptamer) GGUUUCAACCUUUGCAAACAUGCUUUGGAUGGUAACGAAUGACCAGCCCGAAAGGGCUGGUCCGACAUCCUUUGGGAAAUCCUUUGGGUGCCGUUU/GCATGTTTGCAAAGGTTGAAA/AAACGGCGTCCAAAGGATTTCCC
The conditions noted are these: 100 mM NaCl, 10 mM MgCl2; 50 mM Tris pH 8.0, 22 °C; 1 μM RNA, 2 μM dye, 2 μM each input; output ON.

Assay [9] relates to AND gate + AND_input A + AND_input B (1-1) (DNA:RNA, aptamer) GGUUUCAACCUUUGCAAACAUGCUUUGGAUGGUAACGAAUGACCAGCCCGAAAGGGCUGGUCCGACAUCCUUUGGGAAAUCCUUUGGGUGCCGUUU/GTAAGCTTTGGTTGA/AAACAGCGTCCAGAGGAT
The conditions noted are these: 100 mM NaCl, 10 mM MgCl2; 50 mM Tris pH 8.0, 22 °C; 1 μM RNA, 2 μM dye, 2 μM each input; output ON.

Assay [10] concerns RNA NAND/NOR gate (no inputs, 0-0) (RNA, aptamer) GGUUUGCAAACAUGCUUUGGAUGGUAACGAAUGACCAGCCCGAAAGGGCUGGUCCGACAUCCUUUGGGAAAUCCUUU
The note with it: 100 mM NaCl, 10 mM MgCl2; 50 mM Tris pH 8.0, 22 °C; 1 μM RNA, 2 μM dye; output ON.

Assay [11] concerns OR gate + OR_input B (0-1) (DNA:RNA, aptamer) GGUUUCAACCUUUGCAAACAUGCUUUGGAUGGUAACGAAUGACCAGCCCGAAAGGGCUGGUCCGACAUCCUUUGGGAAAUCCUUUGGGUGCCGUUU/AAACGGCGTCCAAAGGATTTCCC
The conditions noted are these: 100 mM NaCl, 10 mM MgCl2; 50 mM Tris pH 8.0, 22 °C; 1 μM RNA, 2 μM dye, 2 μM each input; output ON.

In assay [12] the test system is NAND gate + NAND input B (0-1) (DNA:RNA, aptamer) GGUUUGCAAACAUGCUUUGGAUGGUAACGAAUGACCAGCCCGAAAGGGCUGGUCCGACAUCCUUUGGGAAAUCCUUU/TTGATTTCCCTTTGGT
The conditions noted are these: 100 mM NaCl, 10 mM MgCl2; 50 mM Tris pH 8.0, 22 °C; 2 μM dye; fluorescence slightly higher than without input.

In assay [13] the test system is NOR gate + NOR_input B (0-1) (DNA:RNA, aptamer) GGUUUGCAAACAUGCUUUGGAUGGUAACGAAUGACCAGCCCGAAAGGGCUGGUCCGACAUCCUUUGGGAAAUCCUUU/AAAGGATTTCCCAAAGGATGTCGGACC
The note with it: 100 mM NaCl, 10 mM MgCl2; 50 mM Tris pH 8.0, 22 °C; 1 μM RNA, 2 μM dye, 2 μM each input; output OFF.

In assay [14] the test system is OR gate + OR_input A (1-0) (DNA:RNA, aptamer) GGUUUCAACCUUUGCAAACAUGCUUUGGAUGGUAACGAAUGACCAGCCCGAAAGGGCUGGUCCGACAUCCUUUGGGAAAUCCUUUGGGUGCCGUUU/GCATGTTTGCAAAGGTTGAAA
The note with it: 100 mM NaCl, 10 mM MgCl2; 50 mM Tris pH 8.0, 22 °C; 1 μM RNA, 2 μM dye, 2 μM each input; output ON.

For assay [15], the system named is RNA half adder + AND_DNA inhibitor + XOR_DNA inhibitor (0-0) (DNA:RNA, aptamer) GGUGCCCGCUGACCGGAGACGGUCAAAUAGAGCACAGGAUGGUAACGAAUGACCAGCCCGAGGUCGCGACCUUCUUUUCCCUCGCGACUCGAAAUGUUUCUUUUCGAGGUCGCCCCGUAUCUGUCGAGUAGAGUGUGGGCUCGCACGCGGCUGCC/GGCGGCTGCCGCGCAGAGACGGUCGGGUCCAGAUAUUGGAUCUUUCGCCUUUUCGCGAUACGGGCCAACGAUGGGUUUUGAAGGUCGCGACAAGGGCUGGTCCGACAUCCCACACAAATAGAGTGTGGGCCGAGCAGCGGCACC/GGUGCCCGCUGACCGGAGACGGUCAAAUAGAGCACAGGAUGGUAACGAAUGACCAGCCCGAGGGCGACCUCGUUUUGUACCAGCAUCCUCUUCAUAAGUUUUGGCGAAAGAUCCCGUAUCUGUCGAGUAGAGUGUGGGCUCGCACGCGGCUGCC/GGCGGCUGCCGCGCAGAGACGGUCGGGUCCAGAUAUUGGGCGACCUCGUUUUCCGGGAUAUGGUCUCGGCCAACUUUUCGAGGUCGCCCAAGGGCUGGUCCGACAUCCCACACAAAUAGAGUGUGGGCCGAGCAGCGGCAGC/GGAUGCUGGUACUUUUGUUGGCCGAGACCAUAUCCCGGUUUUGAAACAUUUCGAGUCGCGAGGGUUUUCCCAUCGUUGGCCCGUAUCGCGUUUUCUUAUGAAGA/ATAACAGCGCGTAGGGCCACGCTGCCGCTGCTCGGCCCACACTCTATTTGACCGGGATGTCGGACCAGCTGGTCATTCCTTACCATCCCACACTCTATTTGACCGTCTCCGGTCAGCGGGCAGGCGAGCCCTACGCGCTGTTAT/GGCAGCCGCGTGTGCCGCTGGCTCGGCCACACTCTATTTGACCGTCCGGTGCGAGCTGCGCGGCGAGCCCTA
The conditions noted are these: 22 °C, 1 μM RNA strands, 2 μM each inhibitor, 5 μM dye.

With `CN(C)c1ccc(C(=C2C=CC(=[N+](C)C)C=C2)c2ccccc2)cc1`, the binding entry in [1] is “no”; in assay [2] it was “yes”; in [3], “no”; in assay [4], “weak”; in assay [5] it was “weak”; in [6], “no”. In addition, the binding entry in [7] is given as “weak”; in assay [8], “yes”; in assay [9] it was “yes”; in assay [10], “yes”; in assay [11], “yes”; in assay [12], “yes”. The binding entry is “no” in [13], “yes” in assay [14] and “no” in [15] (low fluorescence at 650 nm).

As to `CC1=N/C(=C\c2cc(F)c(O)c(F)c2)C(=O)N1C`, the binding entry in assay [15] (low fluorescence at 510 nm) was “no”.
